Holding throughout (assay type): physicochemical
One data set in a line: Solubilities of baclofen. From the text: (§1) Baclofen (below) is a BCS class III molecule.
A short description of another data set: Log P of baclofen.
Description: as §1
At usual therapeutic doses, baclofen is known to have good oral bioavailability. However, its low log P indicates some hydrophilicity and thus low permeability. This observation is explained by the presence of specific transporters at the small intestine allowing the molecule to pass. This is even greater at the jejunum. […] This region of the digestive system contains no transporters but since the molecule is hydrophilic and of small size, weak passive transport through the tight junctions is possible. It thus appears that when a higher plasma concentration of baclofen is required, the taking of a higher dose is not effective due to saturation of the transporters. The clinical solution is thus to take small doses at shorter time intervals, which can quickly become burdensome for the patient.

Another data set in a line: pKa of baclofen.
Description: as §1

A short description of data set [1]: pH of a saturated solution of baclofen.
Description: as §1

A word on the Log P: it is the decadic logarithm of the partition coefficient of the neutral form, usually between octanol and water. Read a high Log P as a more lipophilic compound. On to `NCC(CC(=O)O)c1ccc(Cl)cc1` (stereo not drawn) [baclofen, Baclofen], for which the Solubility result in the data set “Solubilities of baclofen” (0.1N HCl) is “Soluble: 0.1N HCl, 0.1N NaOH”; in “Solubilities of baclofen” (0.1N NaOH), “Soluble: 0.1N HCl, 0.1N NaOH”; in the data set “Solubilities of baclofen” (ethanol), “Very slightly soluble: ethanol, methanol”; in the data set “Solubilities of baclofen” (methanol), “Very slightly soluble: ethanol, methanol”; in “Solubilities of baclofen” (water), “Slightly soluble: water (3 mg/ml)”. In “Log P of baclofen”, the log partition coefficient (Log P) is recorded as −1. In addition, in “pKa of baclofen”, the pKa1 entry is “pKa1 = 3.87”. In addition, the pKa2 entry in “pKa of baclofen” is on record as “pKa2 = 9.62”. For the same compound, the “pH of a saturated solution” value in data set [1] was found to be 6.5.

The values above are taken from patent US20160310434A1, “GASTRO-RETENTIVE ORAL PHARMACEUTICAL COMPOSITIONS” (ETHYPHARM, priority 2013, published 2016).
